The text below walks through data of PMC6010143, “Synthesis of new pyridothienopyrimidinone derivatives as Pim-1 inhibitors” (Journal of Enzyme Inhibition and Medicinal Chemistry, 2017).

One series has as its target T1, pim-1 kinase (Homo sapiens, UniProt P11309).
T1 construct: The kinase used was cloned, expressed and purified using proprietary methods
Put plainly: Pim-1 kinase radioisotope (33P-ATP) assay, Kinexus compound profiling service. It is filed as biochemical. As to conditions: for pim-1 inhibition, in words: at 50 μM. As to the method: The kinase inhibitory activity of the synthesized compounds was determined using the Kinexus compound profiling service, Canada. All the compounds were tested for their inhibitory activity against pim-1 kinase at 50 μM. The kinase used was cloned, expressed and purified using proprietary methods. Quality control testing is routinely performed to ensure compliance to acceptable standards. ^33P-ATP was purchased from PerkinElmer. All other materials were of standard laboratory grade.
The protein kinase target profiling was executed via employing a radioisotope assay format. All the assays were performed in a prepared radioactive working area. The protein kinase profiling assays were performed at room temperature for 20–30 min in a final volume of 25 μL according to the following assay reaction components: Component 1; 5 μl of diluted active protein kinase (∼10–50 nM final concentration in the assay). Component 2; 5 μl of stock solution of substrate. Component 3; 5 μl of kinase assay buffer. Component 4; 5 μl of the test compound, Staurosporine at 1 μM or 10% DMSO.
The assay was initiated by the addition of ^33P-ATP, followed by incubation at ambient temperature for 30 min. The assay was then terminated by spotting 10 μL of the reaction mixture onto a Multiscreen phosphocellulose P81 plate. The Multiscreen phosphocellulose P81 plate was washed three times for approximately 15 min each in a 1% phosphoric acid solution. The radioactivity on the P81 plate was counted in the presence of scintillation fluid in a Trilux scintillation counter. Blank control was set up that included all the assay components except the addition of the appropriate substrate (replaced with equal volume of assay dilution buffer). The corrected activity for protein kinase target was determined by removing the blank control value.

Series [1] deals with human breast adenocarcinoma (MCF7). The series can be described thus: MTT cytotoxicity assay, MCF7. The format is cell-based. Conditions: for IC50: 72 h exposure, means of three experiments. On the procedure: (§1) Cancer cells from different cancer cell lines were purchased from American type Cell Culture collection (ATCC, Manassas, VA). The cell lines used in this study were human breast adenocarcinoma (MCF7), human colon adenocarcinoma (HCT116) and human prostate cancer cells (PC3). The cell lines were grown on the appropriate growth medium Dulbecco's modified Eagle's medium (DMEM) or Roswell Park Memorial Institute medium (RPMI 1640) supplemented with […] of streptomycin, 100 units/mL of penicillin and 10% of heat-inactivated fetal bovine serum in a humidified, 5% (v/v) CO2 atmosphere at 37 °C.
(§2) Exponentially growing cells from different cancer cell lines were trypsinized, counted and seeded at the appropriate densities (2000–10 000 cells/0.33 cm^2 well) into 96-well microtiter plates. The cells were incubated in a humidified atmosphere at 37°C for 24 h. Then, the cells were exposed to different concentrations of compounds 6c, 7a, 7c, 7d, 8b and 9 (0.1, 10, 100 and 1000 μM) for 72 h. The viability of the treated cells was determined using MTT technique. The media were removed; cells were incubated with 200 μL of 5% MTT solution/well (Sigma Aldrich, St. Louis, MO) and were allowed to metabolize the dye into colored-insoluble formazan crystals for 2 h. The remaining MTT solution was discarded from the wells and the formazan crystals were dissolved in 200 μL/well-acidified isopropanol for 30 min, covered with aluminum foil and with continuous shaking using a MaxQ 2000 plate shaker (Thermo Fisher Scientific Inc, MI) at room temperature. The absorbance was measured at 570 nm using a Stat FaxR 4200 plate reader (Awareness Technology, Inc., Palm City, FL). […] The results are shown in Table 2 and represented graphically in Figure 5.

The test system of series [2] is human prostate cancer cells (PC3). The series can be described thus: MTT cytotoxicity assay, PC3. The format is cell-based. Conditions: for IC50: 72 h exposure, means of three experiments. On the procedure:
as §1, §2
(In general: Tetrazolium dyes change colour on reduction, which living cells bring about.)

For series [3], the system named is human colon adenocarcinoma (HCT116). Put plainly: MTT cytotoxicity assay, HCT116. It is filed as cell-based. Conditions: for IC50: 72 h exposure, means of three experiments. As to the method: as §1, §2
The test system of another series is pim-1. Conditions: cited from earlier work.
The next series addresses pim-2. Conditions: Figure 1; cited from earlier work.

Where only a bound is given, the exact number is not on record here.

T1 sequence (P11309 whole entry): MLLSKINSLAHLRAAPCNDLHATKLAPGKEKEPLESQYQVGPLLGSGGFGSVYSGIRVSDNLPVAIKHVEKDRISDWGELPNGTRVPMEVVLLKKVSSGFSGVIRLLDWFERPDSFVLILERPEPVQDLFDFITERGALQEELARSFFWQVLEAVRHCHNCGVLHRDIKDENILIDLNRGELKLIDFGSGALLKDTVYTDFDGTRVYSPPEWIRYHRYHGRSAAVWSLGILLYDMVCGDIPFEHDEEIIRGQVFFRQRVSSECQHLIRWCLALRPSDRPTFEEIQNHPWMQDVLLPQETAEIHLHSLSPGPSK

For the compound `Cc1nc2sc3c(=O)[nH]c(C(F)(F)F)nc3c2c(C)c1Br` [Compound 8b, 8-Bromo-7,9-dimethyl-2-(trifluoromethyl)pyrido[3',2':4,5]thieno[3,2-d]pyrimidin-4(3H)-one], the IC50 (as a rule, the concentration that gives 50% inhibition) was found to be 8.83 ± 0.028 µM against pim-1 kinase; 28.6 ± 1 µM in series [1] (Homo sapiens, MCF7, 72 h); 59.9 ± 2.48 µM in series [2] (Homo sapiens, 72 h); 23.5 ± 0.53 µM in series [3] (Homo sapiens, HCT-116, 72 h). Further, at pim-1 kinase (test compounds at 50 μM), the inhibition (usually the percentage by which the read-out fell short of the control) at 50 µM worked out at 96%. Further, in series [1], the “cytotoxic activity on MCF7, in words” value is listed as “potent”. In addition, the “cytotoxic activity on PC3, in words” value in series [2] is “moderate”. The “cytotoxic activity on HCT116, in words” value in series [3] is reported as “potent”.
Turning to `Cc1nc2sc3c(=O)[nH]cnc3c2c(C)c1Br` [Compound 5, 8-bromo-7,9-dimethylpyrido[3′,2′:4,5]thieno[3,2-d]pyrimidin-4(3H)-one], on pim-1 kinase (test compounds at 50 μM), 50 µM produced 37% inhibition.
Consider `COc1ccc(N2CCN(C(=O)c3sc4nc(C)c(Br)c(C)c4c3N)CC2)cc1` [V], for which the IC50 in the series with pim-1 (Figure 2, earlier thieno[2,3-b]pyridine) was 12.7 µM.
Consider `CCc1nc2c(sc3nc(C)c(Br)c(C)c32)c(=O)[nH]1` [Compound 8c, 8-Bromo-2-ethyl-7,9-dimethylpyrido[3',2':4,5]thieno[3,2-d]pyrimidin-4(3H)-one], for which the melting point (commonly the temperature, or range, at which the solid turns liquid) was more than 300 °C. Also, the inhibition at 50 µM against pim-1 kinase (test compounds at 50 μM) was 23%. Further, the “% Inhibition of pim-1 kinase” value on pim-1 kinase (test compounds at 50 μM, 50 µM) stood at 17%.
For the compound `Cc1nc2sc3c(c2c(C)c1Br)NC(c1ccccc1Cl)NC3=O` (centres unmarked) [Compound 7a, 8-Bromo-2-(2-chlorophenyl)-7,9-dimethyl-2,3-dihydropyrido[3',2':4,5]thieno[3,2-d]pyrimidin-4(1H)-one], the IC50 was 1.18 ± 0.14 µM on pim-1 kinase; 23.8 ± 0.4 µM in series [1]; 18 to 38 µM in series [1] (Homo sapiens, MCF7, 72 h); 24.2 ± 0.91 µM in series [2]; 18 to 38 µM in series [2] (Homo sapiens, 72 h); 18.3 ± 0.68 µM in series [3]. In series [3] (Homo sapiens, HCT-116, 72 h), this compound returned a concentration for half-maximal inhibition (IC50) of 18 to 38 µM. Further, the inhibition at 50 µM on pim-1 kinase (test compounds at 50 μM) worked out at 81%.
Take `Cc1nc2sc3c(=O)[nH]c(-c4ccccc4O)nc3c2c(C)c1Br` [Compound 6c, 8-Bromo-2-(2-hydroxyphenyl)-7,9-dimethylpyrido[3',2':4,5]thieno[3,2-d]pyrimidin-4(3H)-one]: the IC50 at pim-1 kinase stood at 4.62 ± 0.039 µM; in series [1] (Homo sapiens, MCF7, 72 h), 35.5 ± 1.3 µM; in series [2] (Homo sapiens, 72 h), 60.1 ± 4.65 µM; in series [3] (Homo sapiens, HCT-116, 72 h), 63.3 ± 4.5 µM. Further, the inhibition at 50 µM on pim-1 kinase (test compounds at 50 μM) came to 85%. For the same compound, the “cytotoxic activity on MCF7, in words” value in series [1] is given as “moderate”. Moreover, the “cytotoxic activity on PC3, in words” value in series [2] is “moderate”. Besides, the “cytotoxic activity on HCT116, in words” value in series [3] was “moderate”.
As to `CN[C@@H]1C[C@H]2O[C@@](C)([C@@H]1OC)n1c3ccccc3c3c4c(c5c6ccccc6n2c5c31)C(=O)NC4` [Staurosporine, reference compound], the inhibition at 1 µM on pim-1 kinase (read-out: % Inhibition of pim-1 kinase) is 93%.
As to `NC1CCN(c2ccncc2NC(=O)c2ccc(F)c(-c3c(F)cccc3F)n2)CC1O` (centres unmarked) [LGB321], the values for the Ki on pim-2 and on pim-1 (Figure 1) were 2.1 pM and 1 pM, respectively.
Turning to `Cc1nc2sc3c(c2c(C)c1Br)NC(c1ccccc1C(F)(F)F)NC3=O` (centres unmarked) [Compound 7d, 8-Bromo-7,9-dimethyl-2-[2-(trifluoromethyl)phenyl]-2,3-dihydropyrido[3',2':4,5]thieno[3,2-d]pyrimidin-4(1H)-one], the IC50 on pim-1 kinase is 1.97 ± 0.022 µM; in series [1] it was 30.2 ± 0.8 µM; in series [1] (Homo sapiens, MCF7, 72 h) it was 18 to 38 µM; in series [3], 30 ± 0.55 µM; in series [3] (Homo sapiens, HCT-116, 72 h), 18 to 38 µM. At pim-1 kinase (test compounds at 50 μM), this compound displayed an inhibition at 50 µM of 98%.
As for `CCOC(=O)Cc1nc2c(sc3nc(C)c(Br)c(C)c32)c(=O)[nH]1` [Compound 10, Ethyl (8-bromo-7,9-dimethyl-4-oxo-3,4-dihydropyrido[3',2':4,5]thieno[3,2-d]pyrimidin-2-yl)acetate], the melting point lay in the range of 277 to 278 °C. In addition, at pim-1 kinase, the “pim-1 inhibition, in words” value was “poor”. In addition, at 50 µM the inhibition at pim-1 kinase (test compounds at 50 μM) was 31%.
The compound `Cc1nc2sc3c(c2c(C)c1Br)NC(c1ccccc1F)NC3=O` (centres unmarked) [Compound 7b, 8-Bromo-2-(2-fluorophenyl)-7,9-dimethyl-2,3-dihydropyrido[3',2':4,5]thieno[3,2-d]pyrimidin-4(1H)-one] gave a melting point of 292 to 293 °C. Further, at pim-1 kinase, the “pim-1 inhibition, in words” value is “moderate”. In addition, at 50 µM the inhibition on pim-1 kinase (test compounds at 50 μM) was 66%.
`Cc1nc2c(sc3nc(C)c(Br)c(C)c32)c(=O)[nH]1` [Compound 8a, 8-Bromo-2,7,9-trimethylpyrido[3',2':4,5]thieno[3,2–d]pyrimidin-4(3H)-one] showed a melting point of more than 300 °C. Further, at pim-1 kinase, the “pim-1 inhibition, in words” value is “moderate”. Moreover, on pim-1 kinase (test compounds at 50 μM), the inhibition at 50 µM was found to be 51%.
Regarding `Cc1nc2sc3c(=O)[nH]c(-c4ccccc4F)nc3c2c(C)c1Br` [Compound 6b, 8-Bromo-2-(2-fluorophenyl)-7,9-dimethylpyrido[3',2':4,5]thieno[3,2-d]pyrimidin-4(3H)-one], the melting point was in the range of 295 to 296 °C. Besides, the “pim-1 inhibition, in words” value on pim-1 kinase is given as “moderate”. On pim-1 kinase (test compounds at 50 μM), the inhibition at 50 µM worked out at 61%.
With `CC(=O)Cc1nc2c(sc3nc(C)c(Br)c(C)c32)c(=O)[nH]1` [Compound 9, 8-Bromo-7,9-dimethyl-2-(2-oxopropyl)pyrido[3',2':4,5]thieno[3,2-d]pyrimidin-4(3H)-one], the IC50 stood at 4.18 ± 0.076 µM on pim-1 kinase; 123 ± 12 µM in series [1] (Homo sapiens, MCF7, 72 h); 183 ± 12.1 µM in series [2] (Homo sapiens, 72 h); 151 ± 4.04 µM in series [3] (Homo sapiens, HCT-116, 72 h). At pim-1 kinase (test compounds at 50 μM), this compound had an inhibition at 50 µM of 89%. In series [1], the “cytotoxic activity on MCF7, in words” value was “weak”. The “cytotoxic activity on PC3, in words” value in series [2] was “weak”. Further, the “cytotoxic activity on HCT116, in words” value in series [3] was “weak”.
For the compound `Cc1nc2sc3c(=O)[nH]c(-c4ccccc4Cl)nc3c2c(C)c1Br` [Compound 6a, 8-Bromo-2-(2-chlorophenyl)-7,9-dimethylpyrido[3',2':4,5]thieno[3,2-d]pyrimidin-4(3H)-one], the melting point was more than 300 °C. Moreover, the IC50 against pim-1 kinase is more than 100 µM. Also, on pim-1 kinase (test compounds at 50 μM), the inhibition at 50 µM came to 36%.
For the compound `Cc1nc2sc(C(N)=O)c(N)c2c(C)c1Br` [Compound 4, 3-Amino-5-bromo-4,6-dimethylthieno[2,3-b]pyridine-2-carboxamide], the melting point lay in the range of 260 to 261 °C. Further, the inhibition at 50 µM against pim-1 kinase (test compounds at 50 μM) was 16%.
`Cc1nc2sc3c(=O)[nH]c(-c4ccccc4C(F)(F)F)nc3c2c(C)c1Br` [Compound 6d, 8-Bromo-7,9-dimethyl-2-[2-(trifluoromethyl)phenyl]pyrido[3',2':4,5]thieno[3,2-d]pyrimidin-4(3H)-one]: the melting point lay in the range of 255 to 256 °C. In addition, the “pim-1 inhibition, in words” value at pim-1 kinase is “moderate”. The inhibition at 50 µM against pim-1 kinase (test compounds at 50 μM) was found to be 54%.
In turn, `Cc1nc2sc3c(=O)[nH]c(CC(=O)O)nc3c2c(C)c1Br` [Compound 11, (8-Bromo-7,9-dimethyl-4-oxo-3,4-dihydropyrido[3',2':4,5]thieno[3,2-d]pyrimidin-2-yl)acetic acid] displayed a melting point of more than 300 °C. In addition, the “pim-1 inhibition, in words” value at pim-1 kinase is on record as “poor”. This compound also had an inhibition at 50 µM against pim-1 kinase (test compounds at 50 μM) of 19%.
In the case of `Cc1nc2sc3c(c2c(C)c1Br)NC(c1ccccc1O)NC3=O` (centres unmarked) [Compound 7c, 8-Bromo-2-(2-hydroxyphenyl)-7,9-dimethyl-2,3-dihydropyrido[3',2':4,5]thieno[3,2-d]pyrimidin-4(1H)-one], the IC50 is 1.38 ± 0.025 µM against pim-1 kinase; 59.6 ± 1.2 µM in series [1] (Homo sapiens, MCF7, 72 h); 58.2 ± 3.48 µM in series [2] (Homo sapiens, 72 h); 181 ± 5.03 µM in series [3] (Homo sapiens, HCT-116, 72 h). This compound also displayed an inhibition at 50 µM against pim-1 kinase (test compounds at 50 μM) of 93%. The “cytotoxic activity on MCF7, in words” value in series [1] is “moderate”. Moreover, the “cytotoxic activity on PC3, in words” value in series [2] is on record as “moderate”. For the same compound, in series [3], the “cytotoxic activity on HCT116, in words” value was “moderate”.
